The values below come from US8637537B2, “Serine/threonine kinase inhibitors” (Genentech, Inc., priority 2011, dated 2014).

Like-named read-outs stand apart in the source and are kept apart here. Where only a bound is given, the exact number is not on record here.

The target in test [1] is T1, human recombinant GST-PAK1-KD protein (Homo sapiens, UniProt Q13153).
T1 construct: residues #249-545 of human PAK1, UniProtKP/Swiss Q13153; His6 (N); made in house; host or cells: Sf9 insect cells, pAcGP67 baculovirus expression vector
T1 sequence (Q13153 249-545): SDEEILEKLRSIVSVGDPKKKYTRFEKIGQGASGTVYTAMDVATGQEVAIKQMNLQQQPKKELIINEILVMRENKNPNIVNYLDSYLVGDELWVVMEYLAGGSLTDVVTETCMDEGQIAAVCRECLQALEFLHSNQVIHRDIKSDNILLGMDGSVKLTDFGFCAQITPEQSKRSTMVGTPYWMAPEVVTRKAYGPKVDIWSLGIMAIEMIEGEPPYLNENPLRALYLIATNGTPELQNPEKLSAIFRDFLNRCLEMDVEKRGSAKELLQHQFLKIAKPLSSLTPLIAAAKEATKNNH
Put plainly: GST-PAK1-KD (kinase domain) biochemical assay, microfluidic mobility shift.

The subject of test [2] is group I PAKs (PAK1-3) in EBC1 cells, MEK1 phosphorylation at S298. Put plainly: Cellular PAK assay: MEK1 (S298) phosphorylation in EBC1 cells, HTRF. It is filed as cell-based. As to conditions: Homo sapiens, EBC-1, 2 h treatment, Example 66. How it is done:
Group I PAKs (PAK1-3) are activated upon binding to the Rho GTPases, Rac1 and Cdc42. […] The inhibition of group I PAKs in EBC1 cells is assessed by detecting changes in the level of MEK1 phosphorylation at S298 using homogenous time-resolved fluorescence (HTRF). […] Following inhibitor treatment, cells were lysed with 25 μL of 1× cellular kinase lysis buffer (Cisbio) containing 1× cellular kinase blocking reagent (Cisbio). Cellular lysis was carried out at 4° C. for 2 h with constant shaking before lysate (16 μL) was transferred to white 384-well ProxiPlates™ (Perkin Elmer).

Setting [3] is: GST-PAK1-KD Inhibition Assay - Example 65, read-out: PAK1 inhibition Ki.
The mark [4] stands for this setting: Table II, PAK1 Ki class, read-out: Ki.
[5] abbreviates: Table I, PAK1 Ki class, read-out: Ki.

In general, Ki refers to a dissociation constant, usually derived from enzyme kinetics or from competition with a known ligand. In general, IC50 refers to the concentration that gives 50% inhibition. For the compound `COc1cc(CNc2nccc(Nc3cc(C4CC4)[nH]n3)n2)c2cn[nH]c2c1` [II-74, N^4-(5-cyclopropyl-1H-pyrazol-3-yl)-N^2-((6-methoxy-1H-indazol-4-yl)methyl)pyrimidine-2,4-diamine], the Ki in test [1] (setting [3]) was 13.6 nM; in test [1] (setting [4]), less than 50 nM. Besides, the midpoint of inhibition in test [2], the IC50, lay at 189 nM. The like results for `CN(Cc1ccc2nc[nH]c2c1Cl)c1nccc(Nc2cc(CCC#N)[nH]n2)n1` [II-45, 3-(3-(2-(((4-Chloro-3H-benzo[d]imidazol-5-yl)methyl)(methyl)amino)pyrimidin-4-ylamino)-1H-pyrazol-5-yl)propanenitrile] were, in that order, 165 nM, 50 to 250 nM and 1900 nM. For `CN(Cc1ccc2[nH]cnc2c1Cl)c1nccc(Nc2cc(C3COC3)[nH]n2)n1` [II-2, N^2-[(4-Chloro-1H-benzimidazol-5-yl)methyl]-N^2-methyl-N4-[5-(oxetan-3-yl)-1H-pyrazol-3-yl]pyrimidine-2,4-diamine] the same measures were 7.1 nM, less than 50 nM and 475 nM. Turning to `Clc1cnc(NCc2ccc3[nH]cnc3c2Cl)nc1Nc1cc(C2CC2)[nH]n1` [I-106, 5-chloro-N^2-((4-chloro-1H-benzo[d]imidazol-5-yl)methyl)-N^4-(5-cyclopropyl-1H-pyrazol-3-yl)pyrimidine-2,4-diamine], the Ki in test [1] (setting [3]) is 14.8 nM; in test [1] (setting [5]) it was less than 50 nM. In addition, half-maximal inhibition in test [2] (IC50) required 1300 nM. For `Cc1cc(Nc2cc(C3CC3)[nH]n2)nc(N[C@@H](C)c2ccc3[nH]ccc3c2)n1` [I-7, (S)—N^2-(1-(1H-indol-5-yl)ethyl)-N^4-(5-cyclopropyl-1H-pyrazol-3-yl)-6-methylpyrimidine-2,4-diamine] the same measures were 13.5 nM, less than 50 nM and 212 nM. For `FC(F)(F)c1cc(Nc2cc(C3CC3)[nH]n2)nc(NCc2ccc3[nH]cnc3c2)n1` [I-11, N^2-((1H-benzo[d]imidazol-5-yl)methyl)-N^4-(5-cyclopropyl-1H-pyrazol-3-yl)-6-(trifluoromethyl)pyrimidine-2,4-diamine], the results for the Ki in test [1] (setting [3]) and in test [1] (setting [5]) were 33 nM and less than 50 nM, respectively. Moreover, the IC50 in test [2] came to 917 nM.

For the compound `c1cc(CNc2nccc(Nc3cc(C4CC4)[nH]n3)n2)c2cn[nH]c2c1` [I-59, N^2-((1H-Indazol-4-yl)methyl)-N^4-(5-cyclopropyl-1H-pyrazol-3-yl)pyrimidine-2,4-diamine], the results for the inhibitory constant (Ki) in test [1] (setting [3]) and in test [1] (setting [5]) were 37 nM and less than 50 nM, respectively. The IC50 in test [2] stood at 104 nM. As for `Fc1cnc(NCc2cc(Cl)cc3[nH]cnc23)nc1Nc1cc(C2CC2)[nH]n1` [II-23, N^2-((6-Chloro-1H-benzo[d]imidazol-4-yl)methyl)-N^4-(5-cyclopropyl-1H-pyrazol-3-yl)-5-fluoropyrimidine-2,4-diamine], the figures for the Ki in test [1] (setting [3]) and in test [1] (setting [4]) were 36 nM and less than 50 nM, respectively. Moreover, it took 188 nM to reach half-maximal inhibition in test [2] (IC50). On to `CN(Cc1ccc2[nH]cnc2c1)c1nc(Nc2cc(C3CC3)[nH]n2)cc(C(C)(C)O)n1` [II-97, 2-[2-[(1H-Benzoimidazol-5-ylmethyl)-methyl-amino]-6-(5-cyclopropyl-1H-pyrazol-3-ylamino)-pyrimidin-4-yl]-propan-2-ol], for which the Ki in test [1] (setting [3]) is 41.7 nM; in test [1] (setting [4]) it was less than 50 nM. Also, in test [2], the IC50 was 1700 nM. `C[C@H](Nc1nccc(Nc2cc(C3CCC3)[nH]n2)n1)c1ccc2[nH]ccc2c1` [I-114, (S)—N^2-(1-(1H-indol-5-yl)ethyl)-N^4-(5-cyclobutyl-1H-pyrazol-3-yl)pyrimidine-2,4-diamine]: the Ki in test [1] (setting [3]) is 6.75 nM; in test [1] (setting [5]), less than 50 nM. The compound further gave an IC50 in test [2] of 133 nM. For `C[C@H](Nc1nccc(Nc2cc([C@H]3CC3(F)F)[nH]n2)n1)c1ccc2[nH]cnc2c1` [I-62, N^2—((S)-1-(1H-benzo[d]imidazol-5-yl)ethyl)-N^4-(5-((R)-2,2-difluorocyclopropyl)-1H-pyrazol-3-yl)pyrimidine-2,4-diamine] the same measures were 5.13 nM, less than 50 nM and 244 nM.

Consider `Cc1n[nH]c2cc(Cl)cc(CNc3ncc(F)c(Nc4cc(C5CC5)[nH]n4)n3)c12` [II-24, N^2-((6-Chloro-3-methyl-1H-indazol-4-yl)methyl)-N^4-(5-cyclopropyl-1H-pyrazol-3-yl)-5-fluoropyrimidine-2,4-diamine], for which the Ki in test [1] (setting [3]) is 41.3 nM; in test [1] (setting [4]), less than 50 nM. In addition, the half-inhibitory concentration (IC50) in test [2] came to 339 nM. For `Clc1c[nH]c2cccc(CNc3nccc(Nc4cc(C5CC5)[nH]n4)n3)c12` [II-112, N^2-((3-chloro-1H--indol-4-yl)methyl)-N^4-(5-cyclopropyl-1H-pyrazol-3-yl)pyrimidine-2,4-diamine], the Ki in test [1] (setting [4]) is less than 50 nM. The same measure, in the same setting: for `OCCN(Cc1cccc2[nH]ncc12)c1nccc(Nc2cc(C3CC3)[nH]n2)n1` [II-77, 2-(((1H-indazol-4-yl)methyl)(4-((5-cyclopropyl-1H-pyrazol-3-yl)amino)pyrimidin-2-yl)amino)ethanol] the value was less than 50 nM. `FC1(F)CC1c1cc(Nc2ccnc(NCc3cccc4[nH]ccc34)n2)n[nH]1` (stereo not shown) [I-82, N2—((1H-indol-4-yl)methyl)-N4-(5-(2,2-difluorocyclopropyl)-1H-pyrazol-3-yl)pyrimidine-2,4-diamine]: the Ki in test [1] (setting [5]) was less than 50 nM. On to `c1cc(CNc2nccc(Nc3cc(C4CCCO4)[nH]n3)n2)c2cc[nH]c2c1` (stereo not shown) [I-119, N^2-((1H-indol-4-yl)methyl)-N^4-(5-(tetrahydrofuran-2-yl)-1H-pyrazol-3-yl)pyrimidine-2,4-diamine], for which the Ki in test [1] (setting [5]) lay within 250 to 1000 nM. Still for that read-out and setting: under `CC(C)(O)c1cc(Nc2cc(C3CC3)[nH]n2)nc(NCc2ccc3[nH]cnc3c2Cl)n1` [I-84, 2-(2-((4-chloro-1H-benzo[d]imidazol-5-yl)methylamino)-6-(5-cyclopropyl-1H-pyrazol-3-ylamino)pyrimidin-4-yl)propan-2-ol] stands less than 50 nM.

In the case of `C[C@H](CN(Cc1cc(F)cc2[nH]ncc12)c1nccc(Nc2cc(C3CC3)[nH]n2)n1)N(C)C` [II-62, (R)-N^4-(5-cyclopropyl-1H-pyrazol-3-yl)-N^2-(2-(dimethylamino)propyl)-N^2-((6-fluoro-1H-indazol-4-yl)methyl)pyrimidine-2,4-diamine], in test [1] (setting [4]), the Ki was less than 50 nM.

As for `C[C@H](Nc1nccc(Nc2cc(C3CCOC3)[nH]n2)n1)c1ccc2[nH]ccc2c1` (stereo partly drawn) [I-115, N^2—((S)-1-(1H-indol-5-yl)ethyl)-N^4-(5-(tetrahydrofuran-3-yl)-1H-pyrazol-3-yl)pyrimidine-2,4-diamine], the Ki in test [1] (setting [5]) was less than 50 nM.

Turning to `C[C@H](Nc1nccc(Nc2cc([C@H]3C[C@@H]3c3ccccc3)[nH]n2)n1)c1ccc2[nH]cnc2c1` (stereo in doubt) [I-24, N^2—((S)-1-(1H-benzo[d]imidazol-5-yl)ethyl)-N^4-(5-((trans)-2-phenylcyclopropyl)-1H-pyrazol-3-yl)pyrimidine-2,4-diamine], the Ki in test [1] (setting [5]) is 50 to 250 nM.

Consider `C[C@H](Nc1nccc(Nc2cc([C@H]3C[C@@H]3c3ccccc3F)[nH]n2)n1)c1ccc2[nH]cnc2c1` (stereo in doubt) [I-23, N^2—((S)-1-(1H-benzo[d]imidazol-5-yl)ethyl)-N^4-(5-((trans)-2-(2-fluorophenyl)cyclopropyl)-1H-pyrazol-3-yl)pyrimidine-2,4-diamine], for which the Ki in test [1] (setting [5]) was 50 to 250 nM.

Regarding `F[C@H]1C[C@H]1c1cc(Nc2ccnc(NCc3ccc4[nH]cnc4c3Cl)n2)n[nH]1` [I-76, N^2-((4-chloro-1H-benzo[d]imidazol-5-yl)methyl)-N^4-(5-((1S,2S)-2-fluorocyclopropyl)-1H-pyrazol-3-yl)pyrimidine-2,4-diamine], in test [1] (setting [5]), the Ki is less than 50 nM. Same read-out and setting: for `C[C@H](Nc1nc(Nc2cc(C3CC3)[nH]n2)cc(C(C)(C)O)n1)c1ccc2[nH]ccc2c1` [I-83, (S)-2-(2-(1-(1H-indol-5-yl)ethylamino)-6-(5-cyclopropyl-1H-pyrazol-3-ylamino)pyrimidin-4-yl)propan-2-ol] the value was less than 50 nM. Turning to `CN(C)CCN(Cc1ccc2[nH]cnc2c1)c1nccc(Nc2cc(C3CC3)[nH]n2)n1` [II-105, N^2-((1H-benzo[d]imidazol-5-yl)methyl)-N^4-(5-cyclopropyl-1H-pyrazol-3-yl)-N^2-(2-(dimethylamino)ethyl)pyrimidine-2,4-diamine], the Ki in test [1] (setting [4]) was 50 to 250 nM. The same measure, in the same setting: for `CCc1cc(Nc2ccnc(NCc3cc(F)cc4[nH]ncc34)n2)n[nH]1` [II-107, N^4-(5-ethyl-1H-pyrazol-3-yl)-N^2-((6-fluoro-1H-indazol-4-yl)methyl)pyrimidine-2,4-diamine] the value was 50 to 250 nM; for `CCN(Cc1cc(F)cc2[nH]ncc12)c1nccc(Nc2cc([C@H](C)C3CC3)[nH]n2)n1` [II-92, (R)-N^4-(5-(1-cyclopropylethyl)-1H-pyrazol-3-yl)-N^2-ethyl-N^2((6-fluoro-1H-indazol-4-yl)methyl)pyrimidine-2,4-diamine], less than 50 nM. In the case of `Cc1cc(Nc2cc(C3CC3)[nH]n2)nc(NCc2ccc3[nH]cnc3c2)n1` [I-10, N^2-((1H-benzo[d]imidazol-5-yl)methyl)-N^4-(5-cyclopropyl-1H-pyrazol-3-yl)-6-methylpyrimidine-2,4-diamine], the Ki in test [1] (setting [5]) is less than 50 nM.

Regarding `c1cc(CNc2nccc(Nc3cc(C4CCC4)[nH]n3)n2)c2cc[nH]c2c1` [I-36, N^2-((1H-indol-4-yl)methyl)-N^4-(5-cyclobutyl-1H-pyrazol-3-yl)pyrimidine-2,4-diamine], in test [1] (setting [5]), the Ki is less than 50 nM.
